Source: ChEMBL document CHEMBL1201862, “PubChem BioAssay data set” (2004)
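Where inhibition never reached the appropriate level, the endpoint shown equals the highest concentration tested. Otherwise, values were interpolated linearly from a five-concentration, 48-hour dose response in 96-well plates. Abbreviation: GI50, concentration required for 50% inhibition of growth.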 Activity calls are given as the source filed them. Cut-off read from the data, not from the text of the source: active = GI50 up to about 1.1 µM and inactive = higher.

Tests used:
Assay in all cases: NCI tumour cell line growth inhibition, 48 h
[1] = tested on: DLD-1
[2] = tested on: DMS-273
[3] = tested on: HOP-18
[4] = tested on: RXF 631
[5] = tested on: XF498
[6] = tested on: DMS-114
[7] = tested on: LXFL 529
[8] = tested on: KM-20L2
[9] = tested on: SNB-78

Measured: GI50

Cc1cccc(C)c1NC(=O)CCCC(=O)C1/C(=N/NC(=O)CC#N)CCC/C1=N\NC(=O)CC#N (centres undefined)
inactive: [1] > 100 µM | [2] > 100 µM | [3] > 100 µM | [4] > 100 µM | [5] > 100 µM | [6] > 100 µM | [7] > 100 µM | [8] > 100 µM | [9] > 100 µM

O=C1CC23CC(=O)CC2(C1)c1ccccc1C3=O (centres undefined)
inactive: [1] > 100 µM | [2] > 100 µM | [3] > 100 µM | [5] > 100 µM | [6] > 100 µM | [7] > 100 µM | [8] > 100 µM | [9] > 100 µM

CC(C)(C)OC1=C(OC(C)(C)C)C(O)(c2ccc(Cl)cc2)C1=O (centres undefined)
inactive: [1] > 100 µM | [2] > 100 µM | [3] > 100 µM | [4] 86.5 µM | [6] > 100 µM | [7] > 100 µM | [9] > 100 µM

O=C(NCCCN1CCN(CCCNC(=O)c2cccc3ccccc23)CC1)c1cccc2ccccc12
inactive: [3] > 100 µM | [4] 75.7 µM | [5] 21.9 µM | [6] 59.8 µM | [7] 89.7 µM | [8] 34 µM | [9] 41.3 µM

CN(C)CCn1c2ccccc2c2nc3cc4ccccc4cc3nc21
inactive: [1] 3.81 µM | [2] 3.13 µM | [5] 7.66 µM | [6] 6.47 µM | [7] 4.95 µM | [8] 3.3 µM

Cc1cc2c3ccccc3n(C)c2c2c1C(=O)c1ccccc1C2=O
inactive: [1] 14.6 µM | [2] 19.4 µM | [4] 21.9 µM | [5] 15.9 µM | [6] 17.1 µM | [7] 16.9 µM

Cc1cc2c(Br)cc(Br)c(O)c2nc1C(=O)c1ccccc1
inactive: [1] 36.6 µM | [2] 19 µM | [3] 18.5 µM | [6] 31.6 µM | [7] 21.1 µM | [8] 28.4 µM | [9] 50.1 µM

CCCCC/C=C1\CCC(CN(C)C)C1=O (centres undefined)
inactive: [1] 3.73 µM | [2] 13.6 µM | [3] 24 µM | [4] 14.7 µM | [5] 14.9 µM | [6] 13.5 µM | [7] 1.82 µM | [8] 15.1 µM | [9] 19.7 µM

CC#Cc1c(C#CC)c(OC)c2c(c1OC)C(=O)c1ccccc1C2=O
inactive: [1] 76 µM | [2] 22.8 µM | [5] > 100 µM | [6] 20.7 µM | [7] 54.2 µM | [8] > 100 µM

NNC(=S)N/N=C(/C(=O)Nc1cc(Cl)ccc1Cl)C1C(=O)Nc2ccccc2[S+]1[O-] (centres undefined)
inactive: [1] > 100 µM | [3] > 100 µM | [5] > 100 µM | [6] > 100 µM | [7] > 100 µM | [8] > 100 µM | [9] > 100 µM

CCCCCCCc1cc(OC(=O)c2c(C)cc(OC)cc2O)cc(O)c1C(=O)O
inactive: [1] 19.8 µM | [2] 28.8 µM | [4] 25.5 µM | [7] 18.2 µM | [8] 21.2 µM | [9] 29.2 µM

Cc1c(CCl)c(=O)oc2c(C)c3occ(CCl)c(=O)c3cc12
inactive: [3] 17.4 µM | [4] 16 µM | [6] 20.2 µM | [7] 15.2 µM | [8] > 100 µM

CCN1CCC(O)(c2ccc(OC)cc2)C(C(=O)c2ccc(OC)cc2)C1 (centres undefined)
inactive: [1] 16.9 µM | [2] 22.8 µM | [4] 21.5 µM | [5] 17.6 µM | [6] 18.7 µM | [7] 20 µM | [8] 18.6 µM | [9] 26.1 µM

CC(C)N(C(=O)C12C3C4C1C1C2C3C41C#N)C(C)C (centres undefined)
inactive: [1] > 72.8 µM | [2] > 71.8 µM | [3] > 100 µM | [4] > 100 µM | [5] > 100 µM | [6] > 100 µM | [7] > 100 µM | [8] > 100 µM | [9] > 100 µM

C[C@H]1CCC2C(CN3CCCCC3)C(=O)OC2[C@]2(C)C(=O)CC(N3CCCCC3)C12O (some centres undefined)
inactive: [1] 3.34 µM | [2] 3.57 µM | [3] 29 µM | [4] 1.28 µM | [6] 3.2 µM | [8] 7.91 µM | [9] 4.41 µM

O=C(Nc1cc(C(F)(F)F)ccc1Cl)C(=O)C(C(=O)c1ccc2ccccc2c1)C1OC(=O)c2ccccc21 (centres undefined)
inactive: [1] 9.82 µM | [6] 11.4 µM | [7] 5.11 µM | [8] 20.4 µM

CCCCCCCCCCCC(=O)OCCOCCOCCOCCOCCOC(=O)CCCCCCCCCCC
inactive: [1] > 100 µM | [2] > 100 µM | [3] > 100 µM | [4] > 100 µM | [6] > 100 µM | [7] > 100 µM | [8] > 100 µM | [9] > 100 µM

COC1CC(OS(=O)(=O)c2ccc(C)cc2)C(OC(=O)c2ccccc2)C(C)O1 (centres undefined)
inactive: [1] > 10 µM | [2] > 10 µM | [3] > 10 µM | [5] > 100 µM | [6] > 100 µM | [7] > 10 µM | [8] > 10 µM | [9] > 10 µM

C=C1CC(c2ccc(O)c(OC)c2)Oc2c(OC)cccc21 (centres undefined)
inactive: [1] 37 µM | [2] 18.3 µM | [3] > 100 µM | [6] 20.4 µM | [7] 26.2 µM | [8] > 100 µM | [9] 33.2 µM

C/C=C/C=N/N(C(=O)c1cc([N+](=O)[O-])cc([N+](=O)[O-])c1)C1=NN=C(c2ccccc2)C(c2ccccc2)N1 (centres undefined)
inactive: [1] 75.7 µM | [2] 46 µM | [3] > 100 µM | [4] > 100 µM | [5] 36 µM | [6] 21 µM | [8] 32.1 µM | [9] 52.8 µM

COc1ccc(C2=C3c4cc(OC)c(OC)cc4CCN3C(=S)SS2)cc1OC
inactive: [1] 33.7 µM | [2] 43.5 µM | [3] > 100 µM | [6] 65.2 µM | [7] 52.5 µM | [8] 75.9 µM | [9] 80.4 µM

CCc1cccc(CC)c1NC(=O)CC1SC(N)=NC1=O (centres undefined)
inactive: [2] > 100 µM | [3] > 100 µM | [4] > 100 µM | [5] > 100 µM | [6] > 100 µM | [7] > 100 µM | [9] > 100 µM

CCOC(=O)Cc1csc(Nc2ccc(OCC)cc2)n1
inactive: [1] > 100 µM | [3] > 100 µM | [4] > 100 µM | [5] 38.7 µM | [6] 69.2 µM | [7] 87.3 µM | [8] > 100 µM | [9] > 100 µM
